Target: Mtb20S (Mycobacterium tuberculosis, UniProt P9WHT9)
Format: biochemical

Sequence of Mtb20S (P9WHT9 58-291): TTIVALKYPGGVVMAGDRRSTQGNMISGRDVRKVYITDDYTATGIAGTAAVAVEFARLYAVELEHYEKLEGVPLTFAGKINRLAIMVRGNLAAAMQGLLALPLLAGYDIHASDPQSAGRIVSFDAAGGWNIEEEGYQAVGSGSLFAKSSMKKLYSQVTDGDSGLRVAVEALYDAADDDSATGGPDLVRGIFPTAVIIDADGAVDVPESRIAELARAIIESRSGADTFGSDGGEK

Cc1cc(C(=O)N[C@@H](CC(=O)N2CCC[C@@H]2c2ccccc2)C(=O)N[C@@H](C)c2ncc(-c3ccccc3F)[nH]2)no1 [B6]
improved potency against Mtb20S: 10 fold
